# Test results taken from patent US9212182B2, “Bicyclic sulfonamide compounds as sodium channel inhibitors” (AMGEN INC., priority 2013, dated 2015).
# Molecular target: Nav 1.7 (Homo sapiens (Human), UniProt Q15858)
# Assay: in-vitro Nav 1.7 PX (IC50)
# Format: cell-based
# Settings: not given
# Sequence of Nav 1.7 (Q15858 whole entry): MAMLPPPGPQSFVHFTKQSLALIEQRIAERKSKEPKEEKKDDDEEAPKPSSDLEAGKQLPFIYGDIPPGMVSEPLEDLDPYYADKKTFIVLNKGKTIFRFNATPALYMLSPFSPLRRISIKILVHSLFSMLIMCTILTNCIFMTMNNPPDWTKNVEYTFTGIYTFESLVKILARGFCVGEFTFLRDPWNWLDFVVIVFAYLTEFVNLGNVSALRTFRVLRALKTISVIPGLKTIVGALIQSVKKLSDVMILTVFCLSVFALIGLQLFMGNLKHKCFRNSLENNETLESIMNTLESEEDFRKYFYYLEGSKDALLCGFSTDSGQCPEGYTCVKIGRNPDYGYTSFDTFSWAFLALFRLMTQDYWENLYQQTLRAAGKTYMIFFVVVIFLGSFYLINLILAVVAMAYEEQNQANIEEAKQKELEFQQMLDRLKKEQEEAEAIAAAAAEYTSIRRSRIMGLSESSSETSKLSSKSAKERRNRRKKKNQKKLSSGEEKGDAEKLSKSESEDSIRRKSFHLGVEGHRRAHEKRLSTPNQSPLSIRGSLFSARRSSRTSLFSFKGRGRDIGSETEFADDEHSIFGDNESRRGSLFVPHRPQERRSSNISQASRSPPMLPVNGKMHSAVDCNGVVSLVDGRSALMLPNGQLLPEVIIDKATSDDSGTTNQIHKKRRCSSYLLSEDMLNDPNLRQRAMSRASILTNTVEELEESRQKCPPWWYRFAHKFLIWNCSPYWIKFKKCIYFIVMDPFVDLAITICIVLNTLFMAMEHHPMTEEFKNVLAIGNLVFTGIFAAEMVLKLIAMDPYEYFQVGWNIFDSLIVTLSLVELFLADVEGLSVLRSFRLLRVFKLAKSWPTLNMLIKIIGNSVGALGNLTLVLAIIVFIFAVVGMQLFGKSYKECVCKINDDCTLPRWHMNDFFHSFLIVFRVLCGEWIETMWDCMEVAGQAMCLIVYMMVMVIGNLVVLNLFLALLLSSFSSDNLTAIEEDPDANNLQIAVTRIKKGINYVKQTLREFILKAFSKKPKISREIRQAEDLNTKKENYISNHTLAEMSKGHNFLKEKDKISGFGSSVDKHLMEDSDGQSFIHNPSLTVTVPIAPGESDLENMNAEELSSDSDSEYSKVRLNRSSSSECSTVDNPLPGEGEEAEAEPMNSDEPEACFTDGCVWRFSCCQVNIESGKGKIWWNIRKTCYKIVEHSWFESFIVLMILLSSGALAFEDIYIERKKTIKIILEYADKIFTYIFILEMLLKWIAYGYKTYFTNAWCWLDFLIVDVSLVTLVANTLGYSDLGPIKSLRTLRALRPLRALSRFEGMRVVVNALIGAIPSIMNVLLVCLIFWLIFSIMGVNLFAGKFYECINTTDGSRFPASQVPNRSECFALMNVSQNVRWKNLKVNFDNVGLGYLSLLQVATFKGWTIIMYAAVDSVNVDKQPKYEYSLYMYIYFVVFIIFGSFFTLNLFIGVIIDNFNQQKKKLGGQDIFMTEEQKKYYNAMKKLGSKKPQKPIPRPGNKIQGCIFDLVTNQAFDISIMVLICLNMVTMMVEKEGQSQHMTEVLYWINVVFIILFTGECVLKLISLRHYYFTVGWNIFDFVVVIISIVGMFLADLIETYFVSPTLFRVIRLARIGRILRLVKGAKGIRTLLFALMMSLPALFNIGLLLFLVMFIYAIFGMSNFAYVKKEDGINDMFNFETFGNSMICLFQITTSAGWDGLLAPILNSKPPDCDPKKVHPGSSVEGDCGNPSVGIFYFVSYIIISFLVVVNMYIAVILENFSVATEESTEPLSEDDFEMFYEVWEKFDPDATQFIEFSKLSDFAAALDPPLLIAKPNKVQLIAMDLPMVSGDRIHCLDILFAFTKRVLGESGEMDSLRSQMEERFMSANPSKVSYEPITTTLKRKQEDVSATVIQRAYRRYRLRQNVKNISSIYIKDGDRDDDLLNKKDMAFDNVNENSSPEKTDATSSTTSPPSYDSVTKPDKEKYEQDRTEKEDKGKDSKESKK
row,Compound,IC50 [nM]
1,"Cc1cc(-c2cccc(F)c2)c(F)cc1-n1c(=O)ccc2cc(S(=O)(=O)Nc3ccon3)ccc21 (atropisomer, axis not shown; (P)) [Example 390, (P)-1-(2,3′-difluoro-5-methyl-[1,1′-biphenyl]-4-yl)-N-(isoxazol-3-yl)-2-oxo-1,2-dihydroquinoline-6-sulfonamide]",100
2,"O=c1ccc2cc(S(=O)(=O)Nc3ccon3)ccc2n1-c1ccc(C(F)(F)F)cc1-c1cn[nH]c1 [Example 347, M-1-(2-(1H-pyrazol-4-yl)-4-(trifluoromethyl)phenyl)-N-(isoxazol-3-yl)-2-oxo-1,2-dihydroquinoline-6-sulfonamide]",6600
3,"COc1ccc(C#CC2CCCC2)cc1-n1c(=O)ccc2cc(S(=O)(=O)Nc3ccon3)ccc21 [Example 1147, 1-(5-(cyclopentylethynyl)-2-methoxyphenyl)-N-3-isoxazolyl-2-oxo-1,2-dihydro-6-quinolinesulfonamide]",121
4,"COc1cc(-c2ccc(C)c(F)c2)ccc1-n1c(=O)ccc2cc(S(=O)(=O)Nc3ccon3)ccc21 (atropisomer, axis not shown; (P)) [Example 576, (P)-1-(3′-fluoro-3-methoxy-4′-methyl-4-biphenylyl)-N-3-isoxazolyl-2-oxo-1,2-dihydro-6-quinolinesulfonamide]",40
5,"COc1cc(-c2ccc(C(F)(F)F)cc2)c(F)cc1-n1c(=O)ccc2cc(S(=O)(=O)Nc3ncco3)ccc21 (atropisomer, axis not shown; (P)) [Example 636, (P)-1-(2-fluoro-5-methoxy-4′-(trifluoromethyl)-4-biphenylyl)-N-1,3-oxazol-2-yl-2-oxo-1,2-dihydro-6-quinolinesulfonamide]",31
6,"1-(2′-chloro-5-methoxy-2,3′-dimethyl-4-biphenylyl)-2-oxo-N-2-pyrimidinyl-1,2-dihydro-6-quinolinesulfonamide [Example 961]",56
7,"COc1cc(-c2cccc(Cl)c2)c(Cl)cc1-n1c(=O)ccc2cc(S(=O)(=O)Nc3ccon3)ccc21 (atropisomer, axis not shown; (M)) [Example 460, (M)-1-(2,3′-dichloro-5-methoxy-[1,1′-biphenyl]-4-yl)-N-(isoxazol-3-yl)-2-oxo-1,2-dihydroquinoline-6-sulfonamide]",1760

# Same assay, conditions: in-vitro Nav 1.7 PX data
row,Compound,IC50 [nM]
1,"COc1cc(-c2ccccc2C)c(F)cc1-n1c(=O)ccc2cc(S(=O)(=O)Nc3ccon3)ccc21 [Example 953, 1-(2-fluoro-5-methoxy-2′-methyl-4-biphenylyl)-N-3-isoxazolyl-2-oxo-1,2-dihydro-6-quinolinesulfonamide]",26
2,"COc1cc([C@@H]2CCOC(C)(C)C2)c(F)cc1-n1c(=O)ccc2cc(S(=O)(=O)Nc3ccon3)ccc21 [Example 1096, 1-(4-((4R)-2,2-dimethyltetrahydro-2H-pyran-4-yl)-5-fluoro-2-methoxyphenyl)-N-3-isoxazolyl-2-oxo-1,2-dihydro-6-quinolinesulfonamide, 1-(4-((4S)-2,2-dimethyltetrahydro-2H-pyran-4-yl)-5-fluoro-2-methoxyphenyl)-N-3-isoxazolyl-2-oxo-1,2-dihydro-6-quinolinesulfonamide]",1120
3,"COc1cc(C)cc(-c2cc(OC)c(-n3c(=O)ccc4cc(S(=O)(=O)Nc5ncccn5)ccc43)cc2C)c1 [Example 967, 1-(3′,5-dimethoxy-2,5′-dimethyl-4-biphenylyl)-2-oxo-N-2-pyrimidinyl-1,2-dihydro-6-quinolinesulfonamide]",14
4,"COc1cc(-c2ccc(Cl)cc2F)c(F)cc1-n1c(=O)ccc2cc(S(=O)(=O)Nc3ccon3)ccc21 [Example 733, 1-(4′-chloro-2,2′-difluoro-5-methoxy-4-biphenylyl)-N-3-isoxazolyl-2-oxo-1,2-dihydro-6-quinolinesulfonamide]",20
5,"COc1cc(Br)c(F)cc1-n1c(=O)ccc2cc(S(=O)(=O)Nc3ccon3)ccc21 [Example 1105, 1-(4-bromo-5-fluoro-2-methoxyphenyl)-N-3-isoxazolyl-2-oxo-1,2-dihydro-6-quinolinesulfonamide]",307
6,"O=c1ccc2cc(S(=O)(=O)Nc3ccon3)ccc2n1-c1ccc(-c2cccc(C(F)(F)F)c2)cc1 [Example 591, N-3-isoxazolyl-2-oxo-1-(3′-(trifluoromethyl)-4-biphenylyl)-1,2-dihydro-6-quinolinesulfonamide]",732
7,"COc1cc(-c2cccc(OC)c2C)c(C)cc1-n1c(=O)ccc2cc(S(=O)(=O)Nc3ncccn3)ccc21 [Example 968, 1-(3′,5-dimethoxy-2,2′-dimethyl-4-biphenylyl)-2-oxo-N-2-pyrimidinyl-1,2-dihydro-6-quinolinesulfonamide]",57

# Results, then the compound that gave them:
row,IC50 [nM],Compound
1,155,"COc1cc(-c2cccc(C)c2)ccc1-n1c(=O)ccc2cc(S(=O)(=O)Nc3cc(C)ncn3)ccc21 [Example 1131, 1-(3-methoxy-3′-methyl-4-biphenylyl)-N-(6-methyl-4-pyrimidinyl)-2-oxo-1,2-dihydro-6-quinolinesulfonamide]"
2,4150,"COc1nc(-c2cc(F)cc(F)c2)c(Cl)cc1-n1c(=O)ccc2cc(S(=O)(=O)Nc3ncccn3)ccc21 [Example 1081, 1-(5-chloro-6-(3,5-difluorophenyl)-2-methoxy-3-pyridinyl)-2-oxo-N-2-pyrimidinyl-1,2-dihydro-6-quinolinesulfonamide]"
3,40,"COc1cc(-c2cccc(C)c2)ccc1-n1c(=O)ccc2cc(S(=O)(=O)Nc3ncc(F)cn3)ccc21 [Example 1119, N-(5-fluoro-2-pyrimidinyl)-1-(3-methoxy-3′-methyl-4-biphenylyl)-2-oxo-1,2-dihydro-6-quinolinesulfonamide]"
4,56,"COc1ccc(F)c(-c2cc(OC)c(-n3c(=O)ccc4cc(S(=O)(=O)Nc5ccon5)ccc43)cc2F)c1 [Example 732, 1-(2,2′-difluoro-5,5′-dimethoxy-4-biphenylyl)-N-3-isoxazolyl-2-oxo-1,2-dihydro-6-quinolinesulfonamide]"
5,9,"COc1cc(-c2cnc(OC)c(Cl)c2)c(F)cc1-n1c(=O)ccc2cc(S(=O)(=O)Nc3ccon3)ccc21 [Example 740, 1-(4-(5-chloro-6-methoxy-3-pyridinyl)-5-fluoro-2-methoxyphenyl)-N-3-isoxazolyl-2-oxo-1,2-dihydro-6-quinolinesulfonamide]"

# Same assay, conditions: in-vitro Nav 1.7 PX data (PatchXpress)
row,IC50 [nM],Compound
1,11,"COc1cc(-c2cccc(Cl)c2F)ccc1-n1c(=O)ccc2cc(S(=O)(=O)Nc3ccon3)ccc21 [Example 1057, 1-(3′-chloro-2′-fluoro-3-methoxy-4-biphenylyl)-N-3-isoxazolyl-2-oxo-1,2-dihydro-6-quinolinesulfonamide]"
2,2950,"O=c1ccc2cc(S(=O)(=O)Nc3cnccn3)ccc2n1-c1ccc(-c2cc(F)cc(F)c2)cc1C1CC1 [Example 1044, 1-(3-cyclopropyl-3′,5′-difluoro-4-biphenylyl)-2-oxo-N-2-pyrazinyl-1,2-dihydro-6-quinolinesulfonamide]"

# Same assay, conditions: in-vitro PatchXpress (PX)
row,IC50 [nM],Compound
1,4360,"COc1cc(-c2ccc(Cl)c(C)c2)ccc1-n1c(=O)ccc2cc(S(=O)(=O)Nc3cccnn3)ccc21 (atropisomer, axis not shown; (P)) [Example 371, (P)-1-(4′-chloro-3-methoxy-3′-methyl-4-biphenylyl)-2-oxo-N-3-pyridazinyl-1,2-dihydro-6-quinolinesulfonamide]"
